Experiments:
[1] = molecular target: T1, GST-tagged Tankyrase-1 (1023-1327 aa) (Homo sapiens, UniProt O95271); assay: Tankyrase 1 autoparsylation assay (HTRF enzyme assay); type: biochemical
T1 construct: GST-tagged Tankyrase-1 (1023-1327 aa)
In short: (§1)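 ~250 nM GST-tagged enzyme with 5 μM biotin-NAD in HEPES/Mg/DTT buffer pH 7.7, 10 compound concentrations, 90 min at 30 °C; EDTA stop. Eu-anti-GST/streptavidin-Xlent HTRF read (665/615 ratio) after 1 h RT. IC50 relative to inhibitor-free reaction and 5 μM XAV-939 as zero.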

tankyrase 1/2 = assay: Cellular inhibition of Tankyrase: increase of Axin2 level in DLD1 cells (Luminex); type: cell-based; details: 24 hours, read-out: EC50 tankyrase 1/2 (cell assay)
In short: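 DLD1 colon carcinoma cells treated 24 h with seven-step serial dilutions in triplicate (0.3% DMSO final). Axin2 in cleared lysates captured on anti-Axin2 beads, detected with polyclonal anti-Axin2 plus PE secondary, and quantified by Luminex. EC50 from data normalized to solvent control; IWR-2 (3E-06 M) marks maximal Axin2 increase.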

[2] = molecular target: T2, GST-tagged Tankyrase-2 (873-1166 aa) (Homo sapiens, UniProt Q9H2K2); assay: Tankyrase 2 autoparsylation assay (HTRF enzyme assay); type: biochemical
T2 construct: GST-tagged Tankyrase-2 (873-1166 aa)
T2 sequence (Q9H2K2 873-1166): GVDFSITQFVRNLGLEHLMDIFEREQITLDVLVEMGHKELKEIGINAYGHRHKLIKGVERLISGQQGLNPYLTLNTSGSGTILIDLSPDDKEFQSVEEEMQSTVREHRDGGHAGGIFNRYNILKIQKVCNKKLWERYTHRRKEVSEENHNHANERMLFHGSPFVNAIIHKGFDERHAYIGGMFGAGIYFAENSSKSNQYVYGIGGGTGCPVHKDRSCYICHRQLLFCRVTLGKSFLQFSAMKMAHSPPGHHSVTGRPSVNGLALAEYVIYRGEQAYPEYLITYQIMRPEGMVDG
In short: as §1

T1 sequence (O95271 1023-1327): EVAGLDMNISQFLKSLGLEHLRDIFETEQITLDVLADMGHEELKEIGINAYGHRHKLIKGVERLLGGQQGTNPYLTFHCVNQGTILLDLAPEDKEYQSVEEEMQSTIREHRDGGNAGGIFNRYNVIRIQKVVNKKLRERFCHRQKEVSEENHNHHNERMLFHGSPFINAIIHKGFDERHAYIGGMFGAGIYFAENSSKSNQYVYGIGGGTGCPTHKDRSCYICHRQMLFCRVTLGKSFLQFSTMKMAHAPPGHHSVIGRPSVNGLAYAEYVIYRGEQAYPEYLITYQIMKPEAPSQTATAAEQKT

| Compound | IC50 [1] [nM] | EC50 (tankyrase 1/2) [nM] | IC50 [2] [nM] |
| --- | --- | --- | --- |
| O=c1[nH]c(-c2ccc(C3(O)CCC3)cc2)cn2cccc12 [Compound A111] | < 300 | < 300 | < 300 |
| CC(C)(C)c1ccc(-c2cn3cc(F)cc3c(=O)[nH]2)cc1 [Compound A35, 3-(4-tert-butyl-phenyl)-7-fluoro-2H-pyrrolo[1,2-a]pyrazin-1-one] | < 300 | < 300 | < 300 |
| CCC(O)(CC)c1ccc(-c2cn3cc(F)cc3c(=O)[nH]2)cc1 [Compound A61, 3-[4-(1-ethyl-1-hydroxy-propyl)-phenyl]-7-fluoro-2H-pyrrolo[1,2-a]pyrazin-1-one] | < 300 | < 300 | < 300 |
| O=c1[nH]c(-c2ccc(C3CCNC3)cc2)cn2cccc12 (stereo not drawn) [Compound A76, 3-(4-Pyrrolidin-3-yl-phenyl)-2H-pyrrolo[1,2-a]pyrazin-1-one] | < 300 | 300 to 3000 | 300 to 3000 |
| CN1CCC(c2ccc(-c3cn4cccc4c(=O)[nH]3)cc2)CC1 [Compound A79, 3-[4-(1-methyl-piperidin-4-yl)-phenyl]-2H-pyrrolo[1,2-a]pyrazin-1-one] | < 300 | 3000 to 50000 | < 300 |
| CN1CCC(c2ccc(-c3cn4cccc4c(=O)[nH]3)cc2)C1 (stereo not drawn) [Compound A80, 3-[4-(1-methyl-pyrrolidin-3-yl)-phenyl]-2H-pyrrolo[1,2-a]pyrazin-1-one] | 300 to 3000 | 3000 to 50000 | 300 to 3000 |
| CC1(c2ccc(-c3cn4cc(F)cc4c(=O)[nH]3)cc2)CCCO1 (stereo not drawn) [Compound A73, 7-fluoro-3-[4-(2-methyl-tetrahydro-furan-2-yl)-phenyl]-2H-pyrrolo[1,2-a]pyrazin-1-one] | < 300 | < 300 | < 300 |
| Cc1cc2c(=O)[nH]c(-c3ccc(C(C)(C)O)cc3)cn2n1 [Compound A46, 6-[4-(1-hydroxy-1-methyl-ethyl)phenyl]-2-methyl-5H-pyrazolo[1,5-a]pyrazin-4-one] | < 300 | 300 to 3000 | 300 to 3000 |
| Cn1cc(-c2ccc(-c3cn4cccc4c(=O)[nH]3)cc2)cn1 [Compound A25, 3-[4-(1-methyl-1H-pyrazol-4-yl)-phenyl]-2H-pyrrolo[1,2-a]pyrazin-1-one] | < 300 | < 300 | < 300 |
| Cc1cc2c(=O)[nH]c(-c3ccc(C(C)(C)O)cc3)cn2c1 [Compound A56, 3-[4-(1-hydroxy-1-methyl-ethyl)-phenyl]-7-methyl-2H-pyrrolo[1,2-a]pyrazin-1-one] | < 300 | < 300 | 300 to 3000 |
| CC(C)(O)c1ccc(-c2cn3cccc3c(=O)[nH]2)cc1 [Compound A29, 3-[4-(1-hydroxy-1-methyl-ethyl)-phenyl]-2H-pyrrolo[1,2-a]pyrazin-1-one] | < 300 | < 300 | < 300 |
| CC(C)(O)c1ccc(-c2cn3cc(F)cc3c(=O)[nH]2)cc1 [Compound A59, 7-fluoro-3-[4-(1-hydroxy-1-methyl-ethyl)-phenyl]-2H-pyrrolo[1,2-a]pyrazin-1-one] | < 300 | < 300 | < 300 |
| CC(C)(F)c1ccc(-c2cn3cc(F)cc3c(=O)[nH]2)cc1 [Compound A63, 7-fluoro-3-[4-(1-fluoro-1-methyl-ethyl)-phenyl]-2H-pyrrolo[1,2-a]pyrazin-1-one] | < 300 | < 300 | 300 to 3000 |
| O=c1[nH]c(-c2ccc(C3CCNCC3)cc2)cn2cccc12 [Compound A75, 3-(4-piperidin-4-yl-phenyl)-2H-pyrrolo[1,2-a]pyrazin-1-one] | < 300 | 300 to 3000 | < 300 |
| Cc1ccc(-c2cn3cccc3c(=O)[nH]2)cc1 [Compound A12, 3-p-tolyl-2H-pyrrolo[1,2-a]pyrazin-1-one] | < 300 | 300 to 3000 | 300 to 3000 |
| CC(C)(C)c1ccc(-c2cn3cccc3c(=O)[nH]2)cc1 [Compound A11, 3-(4-tert-butyl-phenyl)-2H-pyrrolo[1,2-a]pyrazin-1-one] | < 300 | < 300 | < 300 |
| CC(C)(OCCO)c1ccc(-c2cn3cc(F)cc3c(=O)[nH]2)cc1 [Compound A70, 7-fluoro-3-{4-[1-(2-hydroxy-ethoxy)-1-methyl-ethyl]-phenyl}-2H-pyrrolo[1,2-a]pyrazin-1-one] | < 300 | < 300 | < 300 |
| CC(C)(O)c1ccc(-c2cn3cc(Cl)cc3c(=O)[nH]2)cc1 [Compound A60, 7-chloro-3-[4-(1-hydroxy-1-methyl-ethyl)-phenyl]-2H-pyrrolo[1,2-a]pyrazin-1-one] | < 300 | < 300 | < 300 |
| COCCOC(C)(C)c1ccc(-c2cn3cc(F)cc3c(=O)[nH]2)cc1 [Compound A71, 7-fluoro-3-{4-[1-(2-methoxy-ethoxy)-1-methyl-ethyl]-phenyl}-2H-pyrrolo[1,2-a]pyrazin-1-one] | < 300 | 300 to 3000 | 300 to 3000 |
| CC(C)(N)c1ccc(-c2cn3cc(F)cc3c(=O)[nH]2)cc1 [Compound A72, 3-[4-(1-amino-1-methyl-ethyl)-phenyl]-7-fluoro-2H-pyrrolo[1,2-a]pyrazin-1-one] | < 300 | 3000 to 50000 | < 300 |

From patent US9120805B2, “Substituted pyrrolo[1,2-A]pyrazin-1-ones and pyrazolo[1,5-A]pyrazin-4-ones as inhibitors of tankyrase and poly(ADP-ribose)polymerase activity” (Merck Patent GmbH, priority 2012, dated 2015)
